The values below come from patent US6653508B2, “3-amino-2-benzyl-1-phenylpropane derivatives” (Gruenenthal GmbH, priority 1999, dated 2003).

Structures can show the parent of a compound that is named as a salt.

Test system in one data set: not given
Test: not given
Conditions: not given
Usually melting point stands for the temperature, or range, at which the solid turns liquid. Compound `CN(C)CC(Cc1ccccc1)C(=O)c1cccc(Cl)c1Cl.Cl` (racemic) showed a melting point of 114 °C.

For the compound `COc1ccc(C(=O)C(Cc2ccccc2)CN(C)C)c(OC)c1OC.Cl` (racemic), the melting point was 141 °C.

Turning to `COc1cc(C(=O)C(Cc2ccccc2)CN(C)C)cc(OC)c1OC.Cl` (racemic), the melting point was found to be 125 °C.

Compound `CN(C)CC(Cc1ccccc1)C(=O)c1cc(O)ccc1O.Cl` (racemic) gave a melting point of 177 °C.

In turn, `COc1ccccc1C(=O)C(Cc1ccccc1)CN(C)C.Cl` (racemic) showed a melting point of 159 °C.

Take `CN(C)CC(Cc1ccccc1)C(=O)c1ccc2ccccc2c1.Cl` (racemic): the melting point amounted to 135.3 °C.

Take `CN(C)CC(Cc1ccccc1)C(=O)c1ccc2ccc3ccccc3c2c1.Cl` (racemic): the melting point worked out at 138.7 °C.

For the compound `CN(C)CC(Cc1ccccc1)C(=O)c1ccccc1O.Cl` (racemic), the melting point stood at 123 °C.

Compound `COc1ccc2cc(C(=O)C(Cc3ccccc3)CN(C)C)ccc2c1.Cl` (racemic) gave a melting point of 88 to 95 °C.

`CN(C)CC(Cc1ccccc1)C(=O)c1ccccc1-c1ccccc1.Cl` (racemic) came in with a melting point of 134 to 134.8 °C.

As to `CN(C)CC(Cc1ccccc1)C(=O)c1ccc(F)cc1Cl.Cl` (racemic), the melting point is 150.3 °C.

Compound `COc1cccc(C(=O)C(Cc2ccccc2F)CN(C)C)c1.Cl` (racemic) came in with a melting point of 111 °C.

Take `COc1cccc(C(=O)C(Cc2cccc(F)c2)CN(C)C)c1.Cl` (racemic): the melting point worked out at 141 °C.

The compound `COc1cccc(C(=O)C(Cc2ccc(F)cc2)CN(C)C)c1.Cl` (racemic) had a melting point of 138 °C.

The compound `COc1ccc(CC(CN(C)C)C(=O)c2cccc(OC)c2)cc1.Cl` (racemic) had a melting point of 134 °C.

With `COc1cccc(C(=O)[C@@H](CN(C)C)[C@H](c2ccccc2)c2cccc(OC)c2)c1.Cl` (racemic), the melting point came to 139.1 °C.

Compound `CC[C@@H](c1ccccc1)[C@H](CN(C)C)C(=O)c1cccc(OC)c1.Cl` (racemic) yielded a melting point of 89.5 °C.

For `CN(C)CC(Cc1ccccc1)C(=O)c1cccc(C(F)(F)F)c1.Cl` (racemic), the melting point came to 104 °C.

In the case of `CNCC(Cc1cccc(C)c1)C(=O)c1cccc(OC)c1.Cl` (racemic), the melting point is 118 to 120 °C.

Compound `COc1cccc(C(=O)C(Cc2ccc(F)c(F)c2)CN(C)C)c1.Cl` (racemic) gave a melting point of 128 °C.

`CN(C)CC(Cc1ccccc1)C(=O)c1cccc(O)c1.Cl` (racemic) [Example 6, (2RS)-2-benzyl-3-dimethylamino-1-(3-hydroxyphenyl)-propan-1-one hydrochloride] gave a melting point of 169 °C.

For the compound `COc1ccc(OC)c(C(=O)C(Cc2ccccc2)CN(C)C)c1.Cl` (racemic) [Example 8, (2RS)-2-benzyl-1-(2,5-dimethoxyphenyl)-3-dimethylaminopropan-1-one hydrochloride], the melting point came to 149 °C.

As for `CSc1cccc(C(=O)C(Cc2ccccc2)CN(C)C)c1.Cl` (racemic) [Example 22, (2RS)-2-benzyl-3-dimethylamino-1-(3-methylsulfanylphenyl)-propan-1-one hydrochloride], the melting point came out at 118 °C.

`CN(C)CC(Cc1ccccc1)C(=O)c1cccc(C#N)c1.Cl` (racemic) [Example 26, (2RS)-3-(2-benzyl-3-dimethylaminopropionyl)-benzonitrile hydrochloride] showed a melting point of 154 °C.

Regarding `CN(C)CC(Cc1ccccc1)C(=O)c1ccc2cc(O)ccc2c1.Cl` (racemic) [Example 29, (2RS)-2-benzyl-3-dimethylamino-1-(6-hydroxynaphthalen-2-yl)-propan-1-one hydrochloride], the melting point is 180 to 182 °C.

The subject of another data set is phenylquinone-induced writhing reactions in mice. Kind of data set: Phenylquinone-induced writhing test in mice. The class given is in vivo. The following applies: Mus musculus, iv; male mice, 10 mg/kg i.v.; phenylquinone i.p. 10 minutes after test substance; writhing counted 5-20 minutes after phenylquinone. The protocol:
The analgesic effectiveness of the compounds according to the invention is investigated in mice by the phenylquinone-induced writhing test as modified by I. C. Hendershot, J. Forsaith in J. Pharmacol. Exp. Ther. 125, 237-240 (1959). For this purpose male mice weighing 25-30 g are used. Groups in each case of 10 animals received per substance a dose, 10 minutes after intravenous administration of the test substances, 0.3 ml/mouse of a 0.02% aqueous solution of phenylquinone (phenylbenzoquinone, Sigma, Deisenhofen; solution prepared under the addition of 5% ethanol and storage in a water bath at 45° C.) applied intraperitoneally. The animals were then placed individually in observation cages. The number of pain-induced stretching movements (so-called writhing reactions=straightening of the body with stretching of the rear extremities) was counted with a push-button counter 5-20 minutes after administration of the phenyl quinone. Animals that had only received physiological saline solution with the phenylquinone served as controls.
All substances were tested in a standard dose of 10 mg/kg. The percentage inhibition (% inhibition) of the writhing reactions achieved by a substance was calculated according to the following formula: [formula]
Background: An intraperitoneal irritant provokes the stretching counted in writhing tests.
Usually inhibition in vivo stands for the change of the read-out against control, counted positive when it falls. On to `CN(C)CC(Cc1ccccc1)C(=O)c1cccc(OCc2ccccc2)c1` (racemic) [Example 2, (2RS)-1-(3-benzyloxyphenyl)-2-dimethylaminomethyl-3-phenylpropan-1-one hydrochloride], for which the inhibition in vivo at 10 mg/kg was 85%.

On to `CN(C)CC(Cc1ccccc1)C(=O)c1cccc(O)c1.Cl` (racemic) [Example 6, (2RS)-2-benzyl-3-dimethylamino-1-(3-hydroxyphenyl)-propan-1-one hydrochloride], for which 10 mg/kg produced 84% inhibition in vivo.

`COc1cc(OC)cc(C(=O)C(Cc2ccccc2)CN(C)C)c1` (racemic) [Example 7, (2RS)-2-benzyl-1-(3,5-dimethoxyphenyl)-3-dimethylamino-propan-1-one hydrochloride] had an inhibition in vivo at 10 mg/kg of 75%.

In turn, `COc1ccc(OC)c(C(=O)C(Cc2ccccc2)CN(C)C)c1.Cl` (racemic) [Example 8, (2RS)-2-benzyl-1-(2,5-dimethoxyphenyl)-3-dimethylaminopropan-1-one hydrochloride] yielded an inhibition in vivo at 10 mg/kg of 92%.

As to `CN(C)CC(Cc1ccccc1)C(=O)c1cc(Cl)ccc1Cl` (racemic) [Example 13, (2RS)-2-benzyl-1-(2,5-dichlorophenyl)-3-dimethylaminopropan-1-one hydrochloride], 10 mg/kg produced 70% inhibition in vivo.

`CSc1cccc(C(=O)C(Cc2ccccc2)CN(C)C)c1.Cl` (racemic) [Example 22, (2RS)-2-benzyl-3-dimethylamino-1-(3-methylsulfanylphenyl)-propan-1-one hydrochloride] displayed an inhibition in vivo at 10 mg/kg of 62%.

For `CN(C)CC(Cc1ccccc1)C(=O)c1cccc(C#N)c1.Cl` (racemic) [Example 26, (2RS)-3-(2-benzyl-3-dimethylaminopropionyl)-benzonitrile hydrochloride], at 10 mg/kg the inhibition in vivo was 79%.

Compound `CN(C)CC(Cc1ccccc1)C(=O)c1ccc2cc(O)ccc2c1.Cl` (racemic) [Example 29, (2RS)-2-benzyl-3-dimethylamino-1-(6-hydroxynaphthalen-2-yl)-propan-1-one hydrochloride] showed an inhibition in vivo at 10 mg/kg of 82%.

`C/C=C(\c1cccc(OC)c1)C(Cc1ccccc1)CN(C)C` (racemic) [Example 65, Z-(2RS)-[2-benzyl-3-(3-methoxyphenyl)-pent-3-enyl]-dimethyl-amine hydrochloride] had an inhibition in vivo at 10 mg/kg of 100%.

Turning to `COc1ccc(C(=O)C(Cc2ccccc2)CN(C)C)c(C)c1C` (racemic) [Example 71, (2RS)-2-benzyl-3-dimethylamino-1-(4-methoxy-2,3-dimethylphenyl)-propan-1-one hydrochloride], the inhibition in vivo at 10 mg/kg came out at 94%.

`COc1cccc(C(=O)C(Cc2cccc(Cl)c2)CN(C)C)c1` (racemic) [Example 72, (2RS)-2-(3-chlorobenzyl)-3-dimethylamino-1-(3-methoxyphenyl)-propan-1-one hydrochloride] registered an inhibition in vivo at 10 mg/kg of 85%.

`COc1cccc(C(=O)[C@@H](Cc2ccccc2)CN(C)C)c1` [Example 11, (−)-(S)-2-benzyl-3-dimethylamino-1-(3-methoxyphenyl)-propan-1-one hydrochloride]: the inhibition in vivo at 10 mg/kg was 90%.
